Data as given in US7892350B2, “Sacrificial agents for fly ash concrete” (Boral Material Technologies Inc., priority 2003, dated 2011).

Legend:
[1] = Precipitation in slurry extract or leachate; assay type: physicochemical; conditions: pH 12.5, entries in parentheses
Method: (§1) The pH of the solutions were adjusted to 12.5 with NaOH.
Precipitation in slurry extract or leachate: To perform this test, FA or cement leachate were prepared in advance, by filtering two liters of a 10 wt % FA, or cement, slurry in 0.03N NaOH which had been left to stand under slow agitation for 30 min; 2.5 g of the filtrate solution was mixed with 22.5 g of the SA or AEA solution in a 50 ml polypropylene centrifuge tube; the latter was shaken vigorously in an orbital shaker (Eberbach Corporation) for 30 min at room temperature, centrifuged for 5 min and then the supernatant solution was filtered (0.45 μm). The SA or AEA content of the solution was determined using an Ultraviolet-Visible (UV) spectrometer or by COD (Chemical Oxygen Demand) measurement.
Entries in parentheses: % precipitation when reacted with solutions extracted from the fly ash slurries (Results in Table 5).

[2] = Adsorption/precipitation of SA or AEA in 10 wt % aqueous fly ash or cement slurries at pH 12.5; assay type: physicochemical; conditions: initial SA 3 mM
Method: Adsorption/Precipitation of Sacrificial Agents (SA) or Air Entrainment Agents (AEA) in 10 wt % Aqueous Fly Ash Slurries at pH 12.5:
as §1
Adsorption/Precipitation in FA or Cement Slurries: In this protocol, aqueous slurries containing 10 wt % FA or cement were prepared as described above, except that in this case, the cement was added directly into a solution of the SA or AEA in the following proportions: 3.0 g cement or FA, and 27 g of 3 mM sacrificial agent, or 27 g of 1050 mg/l AEA; the latter were prepared in the same way as in the precipitation test above. The residual (soluble) SA or AEA content in the solution was also determined by UV or COD.

[3] = Paste air entrainment, Maximum air protocol
Method: (§2) Preparation of pastes: Pastes were prepared by pouring 400 g of cementitious powder in the 350-400 g of solution (water and additives) in a vessel (8.4 cm dia,×14.5 cm height) while gently stirring with a spatula; the exact quantity of water depends on the selected W/B ratio (see below); rapid hand mixing was continued for 1 minute, followed by intense stirring at 25° C. during 2 min using a hand-held mixer (BRAUN model MR400). The level of air entrained is dependent on the mode of utilisation of the mixer, namely the height of the mixer from the bottom of the vessel and the length of the mixing stroke; the following protocols were adopted.
(§3) Fluidity measurements: For all air entrainment measurements, the initial fluidity of the paste (without additives) was controlled using the ‘mini-slump’ procedure widely used for paste and grouts. In this protocol, a portion of the paste was transferred into the min-slump cone (a 2¼″ high, 1½″ bottom diameter, ¾″ top diameter cone); excess paste was skimmed-off with a straight; the cone was then raised and the spread diameter of the paste was recorded (average of two measurements). The fluidity is measured at 10 minutes after mixing. The paste is returned to the batch and reserved for subsequent AE measurements. The fluidity of the paste (without SA and AEA) is adjusted by changing the amount of water (water/cementitious ratio) which yields a spread diameter of 115±5 mm. The latter is monitored regularly.
(§4) Air entrainment measurements: For air entrainment measurements, a portion of the paste was transferred to overfill a Plexiglas cylinder (3¾ inches height, 2 inches interior diameter), which was then levelled flush to the top of the cylinder with a straight edge. The mass of the filled cylinder, minus the weight of the empty cylinder, is then recorded and used to calculate the amount of air according to the following formula: […]
(§5) This procedure was carried out at three times at 30 min. intervals (6, 36 and 66 min); the paste was let to stand at rest between measurements, and was stirred gently by hand for one minute prior to the subsequent air entrainment measurements.
Other combinations of air entrainment agents and sacrificial agents were prepared as stock solutions following the procedure outlined above, adjusting the weights of the various components to achieve the desired component ratios.

[4] = Paste air entrainment, Minimum air protocol
Method: as §2
Minimum air protocol: The BRAUN mixer is positioned at 1.0 inch from the bottom of the mixing vessel and the up-down motion of the mixer is limited to a 1.0 inch displacement; this provided ‘minimum air’ entrained air levels and is later referred to as ‘Minimum air protocol’ (Results reported in Table 6, col. 1 and Table 7).
as §3, §4, §5
Typical mixture compositions for air entrainment measurements in pastes containing a single additive using ‘Minimum air protocol’ (results shown in Table 6, col. 1): […]

[5] = Second sacrificial agent testing protocol: paste air measurements with DDBS (0.0125 wt %) and rating; for Overall performance rating (second protocol rating): key: 0: Fail; 1: Poor; 2: Good; 3: Preferred; 4: Most preferred; for SA Rating (0-4): key: 0: Fail; 1: Poor; 2: Good; 3: Preferred; 4: Most preferred
In short: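 Air entrainment was measured in cement pastes of fixed composition and fluidity. The candidate agent was tested alone at 0.1 wt % in a cement-only paste. It was also tested at 0.05 and 0.1 wt % in a fly ash (B1)-cement paste with DDBS, where air recovery was calculated against the same paste without agent.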

[6] = solution extracted from 10 wt % fly ash B1 (LOI 4.36%) slurry
[7] = solution extracted from 10 wt % fly ash C1, class C (LOI 1.62%) slurry
[8] = solution extracted from 10 wt % fly ash C2 (LOI 3.32%) slurry
[9] = solution extracted from 10 wt % fly ash M1 (LOI […]) slurry
[10] = solution extracted from 10 wt % fly ash M2 (LOI 5.34%) slurry
[11] = solution extracted from 10 wt % fly ash M3 (LOI 11.33%) slurry
[12] = solution extracted from 10 wt % fly ash N (LOI 0.30%) slurry
[13] = 10 wt % fly ash B1 (LOI 4.36%) slurry, Air 30/Air 40 0.105 wt %
[14] = 10 wt % fly ash C1, class C (LOI 1.62%) slurry, Air 30/Air 40 0.105 wt %
[15] = 10 wt % fly ash C2 (LOI 3.32%) slurry
[16] = 10 wt % fly ash M1 (LOI […]) slurry, Air 30/Air 40 0.105 wt %
[17] = 10 wt % fly ash M2 (LOI 5.34%) slurry, Air 30/Air 40 0.105 wt %
[18] = 10 wt % fly ash M3 (LOI 11.33%) slurry, Air 30/Air 40 0.105 wt %
[19] = 10 wt % fly ash N (LOI 0.30%) slurry

SMILES	Precipitation (wt % precipitated) [1, 6] [wt %]	Precipitation (wt % precipitated) [1, 7] [wt %]	Precipitation (wt % precipitated) [1, 8] [wt %]	Precipitation (wt % precipitated) [1, 9] [wt %]	Precipitation (wt % precipitated) [1, 10] [wt %]	Precipitation (wt % precipitated) [1, 11] [wt %]	Precipitation (wt % precipitated) [1, 12] [wt %]	Adsorption (wt % Adsorbed) [2, 13] [wt %]	Adsorption (wt % Adsorbed) [2, 14] [wt %]	Adsorption (wt % Adsorbed) [2, 15] [wt %]	Adsorption (wt % Adsorbed) [2, 16] [wt %]	Adsorption (wt % Adsorbed) [2, 17] [wt %]	Adsorption (wt % Adsorbed) [2, 18] [wt %]	Adsorption (wt % Adsorbed) [2, 19] [wt %]	further results
O=C([O-])c1cccc2ccccc12.[Na+] [NA, 1-Naphthoic acid sodium salt]	0	0	0	80	0	0	0	9	61	4	90	9	12	20	Air entrained ([3]; PCA cement paste, 0.0125% SA or AEA alone, Maximum air protocol): 0 vol %; Air entrained ([4]; 50:50 fly ash B1 (LOI 4.36%):PCA paste, 0.1 wt % Air 30 alone or with 0.05 wt % of the SA): 4 vol %; Air entrained ([4]; 50:50 fly ash C1 (LOI 1.62%):PCA paste, 0.1 wt % Air 30 alone or with 0.05 wt % of the SA): 5 vol %; Air entrained ([4]; 50:50 fly ash D (LOI […]):PCA paste, 0.1 wt % Air 30 alone or with 0.05 wt % of the SA): 6 vol %; Air entrained ([4]; 50:50 fly ash M1 (LOI […]):PCA paste, 0.1 wt % Air 30 alone or with 0.05 wt % of the SA): 6 vol %; Air entrained ([4]; 50:50 fly ash M2 (LOI 5.34%):PCA paste, 0.1 wt % Air 30 alone or with 0.05 wt % of the SA): 4 vol %; Air entrained ([4]; 50:50 fly ash M3 (LOI 11.33%):PCA paste, 0.1 wt % Air 30 alone or with 0.05 wt % of the SA): 5 vol %; Air entrained ([4]; 50:50 fly ash R (LOI […]):PCA paste, 0.1 wt % Air 30 alone or with 0.05 wt % of the SA): 4 vol %; Air entrained ([4]; PCA cement paste, 0.1% SA or AEA alone, Minimum air protocol): 0 vol %; Average of air entrained ([4]; over the fly ash:PCA pastes of Table 7, 0.1 wt % Air 30 alone or with 0.05 wt % of the SA): 5%
NCc1ccccc1 [BA, Benzylamine]	12	11	14	11	15	13	11	25	25	20	13	23	23	16	
COC(C)COC(C)CO (stereo not shown) [Di-PGME, Di-propylene glycol methyl ether]															Air entrained at 66 min ([3]; 50:50 fly ash B1 (LOI 4.36%):PCA paste, Air 30 (0.0125 wt %)/ND/X=1/4/4, X = the labelled SA): 16 vol %; Air entrained at 66 min ([3]; 50:50 fly ash C1 (LOI 1.62%):PCA paste, Air 30 (0.0125 wt %)/ND/X=1/4/4, X = the labelled SA): 21 vol %; Air entrained at 66 min ([3]; 50:50 fly ash D (LOI […]):PCA paste, Air 30 (0.0125 wt %)/ND/X=1/4/4, X = the labelled SA): 25 vol %; Air entrained at 66 min ([3]; 50:50 fly ash M1 (LOI […]):PCA paste, Air 30 (0.0125 wt %)/ND/X=1/4/4, X = the labelled SA): 20 vol %; Air entrained at 66 min ([3]; 50:50 fly ash M2 (LOI 5.34%):PCA paste, Air 30 (0.0125 wt %)/ND/X=1/4/4, X = the labelled SA): 11 vol %; Air entrained at 66 min ([3]; 50:50 fly ash M3 (LOI 11.33%):PCA paste, Air 30 (0.0125 wt %)/ND/X=1/4/4, X = the labelled SA): 15 vol %; Air entrained at 66 min ([3]; 50:50 fly ash R (LOI […]):PCA paste, Air 30 (0.0125 wt %)/ND/X=1/4/4, X = the labelled SA): 20 vol %; Air entrained at 66 min ([3]; PCA paste, no fly ash, Air 30 (0.0125 wt %)/ND/X=1/4/4, X = the labelled SA): 23 vol %; Average of air entrained at 66 min ([3]; over the fly ash:PCA pastes of Table 9, Air 30 (0.0125 wt %)/ND/X=1/4/4, X = the labelled SA): 18%; B1 + 0.0125% DDBS + 0.05% SA (air entrainment) ([5]; B1 FA/cement paste, 0.0125 wt % DDBS, 0.05 wt % SA): 8.7; B1 + 0.0125% DDBS + 0.1% SA (air entrainment) ([5]; B1 FA/cement paste, 0.0125 wt % DDBS, 0.10 wt % SA): 9.7; PCA + 0.1% SA (level of air entrainment by the candidate sacrificial agent) ([5]; Portland cement paste (PCA), […]): 1.1; SA Rating (0-4) ([5]; sacrificial agent overall rating index): 4; Overall performance rating (second protocol rating) ([5]; sum of ratings of air entrainment recovery by 0.05% and 0.1% SA, DDBS 0.0125 wt %, 50:50 B1 fly ash:cement paste): 4
